{"source": "paper PMC8494060", "about": "(Science translational medicine, 2020)", "target": "T1, OGA (Rattus norvegicus, UniProt Q8VIJ5)", "T1 sequence (Q8VIJ5 1-916)": "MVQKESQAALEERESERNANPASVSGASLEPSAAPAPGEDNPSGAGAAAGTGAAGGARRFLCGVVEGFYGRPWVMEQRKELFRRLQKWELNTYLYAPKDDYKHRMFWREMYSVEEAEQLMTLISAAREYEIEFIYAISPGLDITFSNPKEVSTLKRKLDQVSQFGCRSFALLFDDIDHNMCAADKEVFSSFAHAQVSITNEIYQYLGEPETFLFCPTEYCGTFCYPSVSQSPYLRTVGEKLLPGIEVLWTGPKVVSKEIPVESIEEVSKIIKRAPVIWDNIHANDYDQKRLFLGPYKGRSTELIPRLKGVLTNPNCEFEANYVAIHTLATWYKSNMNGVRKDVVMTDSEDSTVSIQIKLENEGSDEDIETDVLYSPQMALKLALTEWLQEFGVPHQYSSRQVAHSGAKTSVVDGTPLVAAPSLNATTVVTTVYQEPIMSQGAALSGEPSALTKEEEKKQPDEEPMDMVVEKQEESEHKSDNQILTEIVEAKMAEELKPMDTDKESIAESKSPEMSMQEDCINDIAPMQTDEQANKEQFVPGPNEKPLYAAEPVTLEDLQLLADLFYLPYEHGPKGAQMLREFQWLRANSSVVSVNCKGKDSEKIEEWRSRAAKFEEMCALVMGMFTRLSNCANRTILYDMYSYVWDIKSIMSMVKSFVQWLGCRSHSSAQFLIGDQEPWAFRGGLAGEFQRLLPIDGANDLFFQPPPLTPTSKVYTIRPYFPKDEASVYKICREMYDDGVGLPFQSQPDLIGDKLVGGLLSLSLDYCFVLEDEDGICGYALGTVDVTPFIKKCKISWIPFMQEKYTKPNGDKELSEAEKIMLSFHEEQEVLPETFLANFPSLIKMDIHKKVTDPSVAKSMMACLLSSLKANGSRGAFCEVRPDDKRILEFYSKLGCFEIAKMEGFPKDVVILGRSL", "assay": "Rat OGA occupancy of thiamet G", "assay_type": "in vivo", "settings": "2 h before tracer", "data": [{"smiles": "CCN=C1N[C@@H]2[C@@H](O)[C@H](O)[C@@H](CO)O[C@@H]2S1", "note": "[thiamet G]", "values": [{"measurement": "LSN3316612 tracer uptake blocked", "setting": "thiamet G 30 mg/kg p.o.", "value": 80, "unit": "%"}, {"measurement": "LSN3316612 tracer uptake blocked", "setting": "thiamet G 100 mg/kg p.o.", "value": 94, "unit": "%"}]}]}
